The text below walks through data of patent US10160755B2 (Plexxikon Inc., priority 2015, dated 2018).

In experiment [1] the target is T1, FLT3-ITD (Homo sapiens, UniProt P36888).
T1 construct: FLT3-ITD; Invitrogen #PV6190
T1 sequence (P36888 1-993): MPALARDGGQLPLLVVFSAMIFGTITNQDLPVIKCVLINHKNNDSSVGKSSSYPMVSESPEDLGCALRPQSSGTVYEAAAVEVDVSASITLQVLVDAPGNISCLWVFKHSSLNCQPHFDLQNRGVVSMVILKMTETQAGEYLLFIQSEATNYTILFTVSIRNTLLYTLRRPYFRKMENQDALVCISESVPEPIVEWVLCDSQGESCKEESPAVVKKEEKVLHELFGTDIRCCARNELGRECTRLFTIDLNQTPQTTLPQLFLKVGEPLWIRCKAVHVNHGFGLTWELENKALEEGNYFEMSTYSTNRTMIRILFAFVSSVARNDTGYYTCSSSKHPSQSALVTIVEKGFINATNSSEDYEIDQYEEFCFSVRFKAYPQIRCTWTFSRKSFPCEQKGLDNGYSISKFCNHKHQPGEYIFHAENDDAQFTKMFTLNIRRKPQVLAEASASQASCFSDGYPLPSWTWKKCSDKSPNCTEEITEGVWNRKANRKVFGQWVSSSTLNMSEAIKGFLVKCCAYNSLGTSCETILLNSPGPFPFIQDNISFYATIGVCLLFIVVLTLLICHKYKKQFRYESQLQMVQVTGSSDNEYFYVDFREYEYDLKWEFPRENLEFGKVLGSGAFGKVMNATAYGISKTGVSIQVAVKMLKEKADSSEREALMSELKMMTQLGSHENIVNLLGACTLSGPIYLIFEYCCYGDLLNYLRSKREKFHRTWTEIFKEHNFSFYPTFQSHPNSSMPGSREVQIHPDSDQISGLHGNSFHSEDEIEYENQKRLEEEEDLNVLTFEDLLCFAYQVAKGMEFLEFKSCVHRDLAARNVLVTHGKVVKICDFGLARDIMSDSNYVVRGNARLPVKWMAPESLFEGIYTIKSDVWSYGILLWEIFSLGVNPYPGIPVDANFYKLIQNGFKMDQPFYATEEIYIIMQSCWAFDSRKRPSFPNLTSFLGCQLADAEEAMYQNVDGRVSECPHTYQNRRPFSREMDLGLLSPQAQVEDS
As to the kind of experiment: FLT3-ITD biochemical kinase assay (AlphaScreen). In a few lines:
(§1)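 Recombinant FLT3 mutant kinases phosphorylate biotin-poly(Glu4-Tyr) peptide (30 nM) at 10 μM ATP for D835Y or 100 μM for ITD. Phosphorylation detected by AlphaScreen: streptavidin donor beads (20 min) then anti-phosphotyrosine PY20 acceptor beads (60 min, RT), signal at 580 nm; inhibition lowers signal.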

Experiment [2] addresses T2, FLT3-D835Y (Homo sapiens, UniProt P36888, D835Y).
T2 construct: purchased Invitrogen PV3967
T2 sequence (P36888 27-993 D835Y): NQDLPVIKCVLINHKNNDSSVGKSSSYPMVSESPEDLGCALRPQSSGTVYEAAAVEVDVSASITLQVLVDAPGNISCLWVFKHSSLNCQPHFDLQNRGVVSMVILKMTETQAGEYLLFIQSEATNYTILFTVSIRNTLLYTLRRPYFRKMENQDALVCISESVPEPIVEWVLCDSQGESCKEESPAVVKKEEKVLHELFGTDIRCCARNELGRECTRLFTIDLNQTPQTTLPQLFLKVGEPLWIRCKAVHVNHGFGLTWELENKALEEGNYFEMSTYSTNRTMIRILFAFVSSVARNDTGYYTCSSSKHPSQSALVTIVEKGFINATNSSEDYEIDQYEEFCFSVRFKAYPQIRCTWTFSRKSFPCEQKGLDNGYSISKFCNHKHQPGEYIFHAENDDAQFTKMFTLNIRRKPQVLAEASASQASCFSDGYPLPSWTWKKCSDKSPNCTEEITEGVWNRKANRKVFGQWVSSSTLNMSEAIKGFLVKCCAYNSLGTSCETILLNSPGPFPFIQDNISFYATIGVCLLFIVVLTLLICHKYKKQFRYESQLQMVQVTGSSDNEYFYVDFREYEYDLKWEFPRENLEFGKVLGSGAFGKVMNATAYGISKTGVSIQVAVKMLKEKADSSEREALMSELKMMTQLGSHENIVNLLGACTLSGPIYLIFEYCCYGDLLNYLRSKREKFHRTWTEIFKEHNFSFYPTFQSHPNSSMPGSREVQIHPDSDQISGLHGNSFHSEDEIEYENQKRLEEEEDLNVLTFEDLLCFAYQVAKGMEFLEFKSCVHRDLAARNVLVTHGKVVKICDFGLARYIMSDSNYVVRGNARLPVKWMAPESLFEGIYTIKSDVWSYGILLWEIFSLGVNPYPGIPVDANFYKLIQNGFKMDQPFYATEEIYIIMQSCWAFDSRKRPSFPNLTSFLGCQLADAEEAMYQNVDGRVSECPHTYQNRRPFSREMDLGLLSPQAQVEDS
As to the kind of experiment: FLT3-D835Y biochemical kinase assay (AlphaScreen). Put shortly:
as §1

`COc1cccc(-c2cnc3[nH]cc(-c4ccc5ncn(C)c5c4)c3n2)c1` [P-145, 2-(3-methoxyphenyl)-7-(3-methylbenzimidazol-5-yl)-5H-pyrrolo[2,3-b]pyrazine]: the IC50 in experiment [1] and in experiment [2] was 0.0001 to 1 µM throughout.
With `CC(C)(C)n1cnc2ccc(-c3c[nH]c4ncc(-c5cnn(C6CC6)c5)nc34)cc21` [P-350, 7-(3-tert-butylbenzimidazol-5-yl)-2-(1-cyclopropylpyrazol-4-yl)-5H-pyrrolo[2,3-b]pyrazine], the IC50 in experiment [1] and in experiment [2] was 0.0001 to 1 µM each time.
As for `O=C(C1CC1)N1CC=C(c2cnc3[nH]cc(-c4ccc5ncn(C6CCCNC6)c5c4)c3n2)C1` (centres unmarked) [P-137, cyclopropyl-[3-[7-[3-(3-piperidyl)benzimidazol-5-yl]-5H-pyrrolo[2,3-b]pyrazin-2-yl]-2,5-dihydropyrrol-1-yl]methanone], the IC50 in experiment [1] and in experiment [2] was 0.0001 to 1 µM throughout.
Regarding `COC(=O)c1cc(-c2cnc3[nH]cc(-c4ccc5ncsc5c4)c3n2)ccc1C` [P-165, methyl 5-[7-(1,3-benzothiazol-6-yl)-5H-pyrrolo[2,3-b]pyrazin-2-yl]-2-methyl-benzoate], the IC50 in experiment [1] and in experiment [2] was 0.0001 to 1 µM throughout.
Consider `COc1cc(-c2cnc3[nH]cc(-c4ccc5ncn(C6CCCNC6)c5c4)c3n2)ccn1` (centres unmarked) [P-136, 2-(2-methoxypyridin-4-yl)-7-(1-(piperidin-3-yl)-1H-benzo[d]imidazol-6-yl)-5H-pyrrolo[2,3-b]pyrazine], for which the concentration for half-maximal inhibition (IC50) in experiment [1] and in experiment [2] was 0.0001 to 1 µM each time.
`COc1cc(-c2cnc3[nH]cc(-c4ccc5ncsc5c4)c3n2)cc(C)n1` [P-173, 6-[2-(2-methoxy-6-methyl-4-pyridyl)-5H-pyrrolo[2,3-b]pyrazin-7-yl]-1,3-benzothiazole]: the half-inhibitory concentration (IC50) in experiment [1] and in experiment [2] was 0.0001 to 1 µM in each case.
Turning to `CC(C)(C)n1cnc2ccc(-c3c[nH]c4ncc(-c5ccc(F)nc5)nc34)cc21` [P-360, 7-(3-tert-butylbenzimidazol-5-yl)-2-(6-fluoro-3-pyridyl)-5H-pyrrolo[2,3-b]pyrazine], the half-inhibitory concentration (IC50) in experiment [1] and in experiment [2] was 0.0001 to 1 µM each time.
Consider `N#Cc1cccc(-c2cnc3[nH]cc(-c4ccc5ncn(C6CCCNC6)c5c4)c3c2)c1` (centres unmarked) [P-200, 3-[3-[3-(3-piperidyl)benzimidazol-5-yl]-1H-pyrrolo[2,3-b]pyridin-5-yl]benzonitrile], for which the IC50 in experiment [1] and in experiment [2] was 0.0001 to 1 µM throughout.
Take `Cn1cnc2ccc(-c3c[nH]c4ncc(-c5cccc(S(=O)(=O)N6CCCC6)c5)nc34)cc21` [P-156, 7-(3-methylbenzimidazol-5-yl)-2-(3-pyrrolidin-1-ylsulfonylphenyl)-5H-pyrrolo[2,3-b]pyrazine]: the IC50 in experiment [1] and in experiment [2] was 0.0001 to 1 µM each time.
For the molecule `CC(C)(C)n1cnc2ccc(-c3c[nH]c4ncc(-c5ccc(C6CC6)nc5)nc34)cc21` [P-353, 7-(3-tert-butylbenzimidazol-5-yl)-2-(6-cyclopropyl-3-pyridyl)-5H-pyrrolo[2,3-b]pyrazine], the IC50 in experiment [1] and in experiment [2] was 0.0001 to 1 µM each time.
As to `O=S(=O)(Nc1cnc2[nH]cc(-c3ccc4ncn(C5CCCNC5)c4c3)c2c1)c1cccc(OC(F)(F)F)c1` (centres unmarked) [P-212, N-[3-[3-(3-piperidyl)benzimidazol-5-yl]-1H-pyrrolo[2,3-b]pyridin-5-yl]-3-(trifluoromethoxy)benzenesulfonamide], the IC50 in experiment [1] and in experiment [2] was 0.0001 to 1 µM in each case.
Consider `COc1cc(-c2cnc3[nH]cc(-c4ccc5ncn(C)c5c4)c3n2)cc(OC)n1` [P-157, 2-(2,6-dimethoxy-4-pyridyl)-7-(3-methylbenzimidazol-5-yl)-5H-pyrrolo[2,3-b]pyrazine], for which the IC50 in experiment [1] and in experiment [2] was 0.0001 to 1 µM each time.
For the molecule `O=C(O)Cc1cccc(-c2cnc3[nH]cc(-c4ccc5ncsc5c4)c3n2)c1` [P-164, 2-[3-[7-(1,3-benzothiazol-6-yl)-5H-pyrrolo[2,3-b]pyrazin-2-yl]phenyl]acetic acid], the IC50 in experiment [1] and in experiment [2] was 0.0001 to 1 µM each time.
Turning to `COc1cc(-c2cnc3[nH]cc(-c4ccc5ncn(C(C)(C)C)c5c4)c3n2)ccc1C#N` [P-354, 4-[7-(3-tert-butylbenzimidazol-5-yl)-5H-pyrrolo[2,3-b]pyrazin-2-yl]-2-methoxy-benzonitrile], the IC50 in experiment [1] and in experiment [2] was 0.0001 to 1 µM each time.
On to `CC(C)(C)n1cnc2ccc(-c3c[nH]c4ncc(-c5cnc(C6CC6)nc5)cc34)cc21` [P-340, 1-tert-butyl-6-[5-(2-cyclopropylpyrimidin-5-yl)-1H-pyrrolo[2,3-b]pyridin-3-yl]benzimidazole], for which the IC50 in experiment [1] and in experiment [2] was 0.0001 to 1 µM in each case.
Consider `COc1cccc(-c2cnc3[nH]cc(-c4ccc5ncsc5c4)c3n2)c1` [P-158, 6-[2-(3-methoxyphenyl)-5H-pyrrolo[2,3-b]pyrazin-7-yl]-1,3-benzothiazole], for which the IC50 in experiment [1] and in experiment [2] was 0.0001 to 1 µM each time.
Consider `CC(C)(C)n1cnc2ccc(-c3c[nH]c4ncc(-c5ccc(F)c(C#N)c5)cc34)cc21` [P-207, 5-[3-(3-tert-butylbenzimidazol-5-yl)-1H-pyrrolo[2,3-b]pyridin-5-yl]-2-fluoro-benzonitrile], for which the IC50 in experiment [1] and in experiment [2] was 0.0001 to 1 µM in each case.
Take `COc1cc(-c2cnc3[nH]cc(-c4ccc5ncn(C6CCCC6)c5c4)c3n2)ccn1` [P-114, 7-(3-cyclopentylbenzimidazol-5-yl)-2-(2-methoxy-4-pyridyl)-5H-pyrrolo[2,3-b]pyrazine]: the IC50 in experiment [1] and in experiment [2] was 0.0001 to 1 µM each time.
Consider `CN(c1cccc(-c2cnc3[nH]cc(-c4ccc5ncsc5c4)c3n2)c1)S(C)(=O)=O` [P-167, N-[3-[7-(1,3-benzothiazol-6-yl)-5H-pyrrolo[2,3-b]pyrazin-2-yl]phenyl]-N-methyl-methanesulfonamide], for which the IC50 in experiment [1] and in experiment [2] was 0.0001 to 1 µM in each case.
In the case of `CC(C)(C)n1cnc2ccc(-c3c[nH]c4ncc(-c5cccc(OC(F)(F)F)c5)nc34)cc21` [P-191, 7-(3-tert-butylbenzimidazol-5-yl)-2-[3-(trifluoromethoxy)phenyl]-5H-pyrrolo[2,3-b]pyrazine], the IC50 in experiment [1] and in experiment [2] was 0.0001 to 1 µM each time.
Turning to `CCS(=O)(=O)Nc1cccc(-c2cnc3[nH]cc(-c4ccc5ncsc5c4)c3n2)c1` [P-169, N-[3-[7-(1,3-benzothiazol-6-yl)-5H-pyrrolo[2,3-b]pyrazin-2-yl]phenyl]ethanesulfonamide], the IC50 in experiment [1] and in experiment [2] was 0.0001 to 1 µM throughout.
With `CCS(=O)(=O)Nc1cccc(-c2cnc3[nH]cc(-c4ccc5ncn(C)c5c4)c3n2)c1` [P-154, N-[3-[7-(3-methylbenzimidazol-5-yl)-5H-pyrrolo[2,3-b]pyrazin-2-yl]phenyl]ethanesulfonamide], the IC50 in experiment [1] and in experiment [2] was 0.0001 to 1 µM each time.
